Data taken from patent publication US10857246B2, “Nuclear imaging and radiotherapeutics agents targeting carbonic anhydrase IX and uses thereof” (THE JOHNS HOPKINS UNIVERSITY, priority 2015, dated 2020).
Entries after “also recorded” stand apart in the source; their conditions may differ.

Key:
[1] = target: T1, CAIX (Homo sapiens, UniProt Q16790); assay: CAIX specific uptake in vitro; format: cell-based
T1 construct: host or cells: ccRCC tumours in patients

[2] = test system: SK-RC-52 xenografts; assay: Radio-therapy of mice bearing SK-RC-52 xenografts; format: in vivo; details: 11.1 MBq and 18.5 MBq i.v., n=4
[3] = test system: CAIX-expressing SK-RC-52 tumors; assay: Biodistribution in mice bearing SK-RC-52 xenografts; format: in vivo; details: 740 kBq i.v.
Description: Animal experiments were performed in accordance with protocols approved by the Johns Hopkins Animal Care and Use Committee (ACUC). Six-week-old female NOD/SCID mice were purchased from the Animal Resource Core of the Sidney Kimmel Comprehensive Cancer Center of Johns Hopkins and were subcutaneously injected in the lower left flank or upper right flank with 1×10^6 SK-RC-52 cells in RPMI 1640 GlutaMAX™ media (Life Technologies, Frederick, Md.) supplemented with 1% fetal bovine serum (FBS). Mice were monitored for tumor size and used for SPECT/CT imaging when the size of the tumor reached 100 mm^3.
Mice bearing SK-RC-52 xenografts at lower left flank were injected intravenously with 740 kBq (20 μCi) of [^111In]XYIMSR-01, or [^177Lu]XYIMSR-01 in 200 μL of PBS. For competitive blocking, same tumor bearing mice were injected with 740 kBq (20 μCi) of [^111In]XYIMSR-01 and 200 nmole of 8 in 200 μL of PBS. At 1 h, 4 h, 8 h, 24 h and 48 h post-injection, mice were sacrificed by cervical dislocation and the blood was immediately collected by cardiac puncture. Heart, lungs, pancreas, spleen, fat, brain, muscle, small intestines, liver, stomach, kidney, urinary bladder, and tumor were collected. Each organ was weighed and the tissue radioactivity was measured with an automated gamma counter (1282 Compugamma CS, Pharmacia/LKBNuclear, Inc., Mt. Waverly, Vic. Australia). The percentage of injected dose per gram of tissue (% ID/g) was calculated by comparison with samples of a standard dilution of the initial dose. All measurements were corrected for radioactive decay.
Data were expressed as mean±standard deviation (SD). Prism software (GraphPAD, San Diego, Calif.) was used to determine statistical significance. Statistical significance was calculated using a paired t test. P-values <0.0001 were considered significant.
Mice bearing SK-RC-52 xenografts within the lower left flank were injected intravenously with 740 kBq (20 μCi) of [Al^18F]XYIMSR-04 in 200 μL of PBS. At specific 1 hour time point mentioned in the paper, mice (n=5) were sacrificed by cervical dislocation and the blood was immediately collected by cardiac puncture. Heart, lungs, pancreas, spleen, fat, brain, muscle, small intestines, liver, bone, stomach, kidney, urinary bladder, and tumor were collected. Each organ was weighed and the tissue radioactivity was measured with an automated gamma counter (1282 Compugamma CS, Pharmacia/LKBNuclear, Inc., Mt. Waverly, Vic. Australia). The percentage of injected dose per gram of tissue (% ID/g) was calculated by comparison with samples of a standard dilution of the initial dose. All measurements were corrected for radioactive decay. Data were expressed as mean±standard deviation (SD). Prism software (GraphPAD, San Diego, Calif.) was used to determine statistical significance. Statistical significance was calculated using a paired t test. P-values <0.0001 were considered significant.
Mice bearing SK-RC-52 xenografts within the upper right flank were injected intravenously with 740 kBq (20 μCi) of [^64Cu]XYIMSR-06 in 200 μL of PBS. For in vivo competition (binding specificity) studies, tumor-bearing mice were injected with 740 kBq (20 μCi) of [^64Cu]XYIMSR-06 and 200 nmole of 8 in 200 μL of PBS concurrently. At specific times after injection (1 h, 4 h, 8 h and 24 h), mice (n=5) were sacrificed by cervical dislocation with blood immediately collected by cardiac puncture. Heart, lungs, pancreas, spleen, fat, brain, muscle, small intestines, liver, stomach, kidney, urinary bladder, and tumor were also collected. Each organ was weighed and the tissue radioactivity was measured with an automated gamma counter (1282 Compugamma CS, Pharmacia/LKBNuclear, Inc., Mt. Waverly, Vic. Australia). The percentage of injected dose per gram of tissue (% ID/g) was calculated by comparison with samples of a standard dilution of the initial dose. All measurements were corrected for radioactive decay. Data were expressed as mean±standard deviation (SD). […]

Structure (SMILES): CC(CCC(=O)N[C@@H](CC(=O)N[C@@H](CC(=O)N[C@@H](CCCCn1cc(CCCC(=O)Nc2nnc(S(N)(=O)=O)s2)nn1)C(=O)NCCOCCOCCNC(=O)CN1CCN(CC(=O)[O-])CCN(CC(=O)[O-])CCN(CC(=O)[O-])CC1)C(=O)O)C(=O)O)(c1ccc(O)cc1)c1ccc(O)cc1.[177Lu+3] [[^177Lu]XYIMSR-01]
- Uptake in vitro [1]: CAIX specific uptake
- Tumor growth compared with control non-treated mice [2]: Delays in tumor growth; also recorded: significant therapeutic effect in controlling tumor growth
- Biodistribution Bladder ([3]; 1 h post-injection): 26.55 % ID/g
- Biodistribution Blood ([3]; 1 h post-injection): 0.55 % ID/g
- Biodistribution Brain ([3]; 1 h post-injection): 0.49 % ID/g
- Biodistribution Fat ([3]; 1 h post-injection): 1.07 % ID/g
- Biodistribution Heart ([3]; 1 h post-injection): 3.59 % ID/g
- Biodistribution Kidney ([3]; 1 h post-injection): 40.77 % ID/g
- Biodistribution Liver ([3]; 1 h post-injection): 4.15 % ID/g
- Biodistribution Lung ([3]; 1 h post-injection): 23.72 % ID/g
- Biodistribution Muscle ([3]; 1 h post-injection): 1.42 % ID/g
- Biodistribution Pancreas ([3]; 1 h post-injection): 2.03 % ID/g
- Biodistribution Small intestine ([3]; 1 h post-injection): 6.11 % ID/g
- Biodistribution Spleen ([3]; 1 h post-injection): 0.29 % ID/g
- Biodistribution Stomach ([3]; 1 h post-injection): 12.20 % ID/g
- Biodistribution Tumor ([3]; 1 h post-injection): 26.91 % ID/g
- Tumor/Blood ratio ([3]; 1 h post-injection): 47.9
- Tumor/Kidney ratio ([3]; 1 h post-injection): 0.6
- Tumor/Muscle ratio ([3]; 1 h post-injection): 18.8
- Biodistribution Bladder ([3]; 4 h post-injection): 6.60 % ID/g
- Biodistribution Blood ([3]; 4 h post-injection): 0.18 % ID/g
- Biodistribution Brain ([3]; 4 h post-injection): 0.33 % ID/g
- Biodistribution Fat ([3]; 4 h post-injection): 0.56 % ID/g
- Biodistribution Heart ([3]; 4 h post-injection): 1.52 % ID/g
- Biodistribution Kidney ([3]; 4 h post-injection): 19.17 % ID/g
- Biodistribution Liver ([3]; 4 h post-injection): 1.79 % ID/g
- Biodistribution Lung ([3]; 4 h post-injection): 10.35 % ID/g
- Biodistribution Muscle ([3]; 4 h post-injection): 0.65 % ID/g
- Biodistribution Pancreas ([3]; 4 h post-injection): 0.99 % ID/g
- Biodistribution Small intestine ([3]; 4 h post-injection): 2.64 % ID/g
- Biodistribution Spleen ([3]; 4 h post-injection): 0.15 % ID/g
- Biodistribution Stomach ([3]; 4 h post-injection): 6.06 % ID/g
- Biodistribution Tumor ([3]; 4 h post-injection): 26.28 % ID/g
- Tumor/Blood ratio ([3]; 4 h post-injection): 150.3
- Tumor/Kidney ratio ([3]; 4 h post-injection): 1.4
- Tumor/Muscle ratio ([3]; 4 h post-injection): 43.7
- Biodistribution Bladder ([3]; 8 h post-injection): 6.00 % ID/g
- Biodistribution Blood ([3]; 8 h post-injection): 0.16 % ID/g
- Biodistribution Brain ([3]; 8 h post-injection): 0.44 % ID/g
- Biodistribution Fat ([3]; 8 h post-injection): 0.46 % ID/g
- Biodistribution Heart ([3]; 8 h post-injection): 1.49 % ID/g
- Biodistribution Kidney ([3]; 8 h post-injection): 18.99 % ID/g
- Biodistribution Liver ([3]; 8 h post-injection): 1.87 % ID/g
- Biodistribution Lung ([3]; 8 h post-injection): 8.87 % ID/g
- Biodistribution Muscle ([3]; 8 h post-injection): 0.47 % ID/g
- Biodistribution Pancreas ([3]; 8 h post-injection): 1.03 % ID/g
- Biodistribution Small intestine ([3]; 8 h post-injection): 3.67 % ID/g
- Biodistribution Spleen ([3]; 8 h post-injection): 0.29 % ID/g
- Biodistribution Stomach ([3]; 8 h post-injection): 6.15 % ID/g
- Biodistribution Tumor ([3]; 8 h post-injection): 27.48 % ID/g
- Tumor/Blood ratio ([3]; 8 h post-injection): 178.6
- Tumor/Kidney ratio ([3]; 8 h post-injection): 1.5
- Tumor/Muscle ratio ([3]; 8 h post-injection): 65.0
- Biodistribution Bladder ([3]; 24 h + block (200 nmole of 8)): 0.73 % ID/g
- Biodistribution Blood ([3]; 24 h + block (200 nmole of 8)): 0.04 % ID/g
- Biodistribution Brain ([3]; 24 h + block (200 nmole of 8)): 0.04 % ID/g
- Biodistribution Fat ([3]; 24 h + block (200 nmole of 8)): 0.03 % ID/g
- Biodistribution Heart ([3]; 24 h + block (200 nmole of 8)): 0.08 % ID/g
- Biodistribution Kidney ([3]; 24 h + block (200 nmole of 8)): 1.54 % ID/g
- Biodistribution Liver ([3]; 24 h + block (200 nmole of 8)): 0.46 % ID/g
- Biodistribution Lung ([3]; 24 h + block (200 nmole of 8)): 0.73 % ID/g
- Biodistribution Muscle ([3]; 24 h + block (200 nmole of 8)): 0.03 % ID/g
- Biodistribution Pancreas ([3]; 24 h + block (200 nmole of 8)): 0.05 % ID/g
- Biodistribution Small intestine ([3]; 24 h + block (200 nmole of 8)): 0.18 % ID/g
- Biodistribution Spleen ([3]; 24 h + block (200 nmole of 8)): 0.38 % ID/g
- Biodistribution Stomach ([3]; 24 h + block (200 nmole of 8)): 0.21 % ID/g
- Biodistribution Tumor ([3]; 24 h + block (200 nmole of 8)): 1.70 % ID/g
- Tumor/Blood ratio ([3]; 24 h + block (200 nmole of 8)): 42.0
- Tumor/Kidney ratio ([3]; 24 h + block (200 nmole of 8)): 1.4
- Tumor/Muscle ratio ([3]; 24 h + block (200 nmole of 8)): 58.6
- Biodistribution Bladder ([3]; 24 h post-injection): 1.29 % ID/g
- Biodistribution Blood ([3]; 24 h post-injection): 0.02 % ID/g
- Biodistribution Brain ([3]; 24 h post-injection): 0.28 % ID/g
- Biodistribution Fat ([3]; 24 h post-injection): 0.05 % ID/g
- Biodistribution Heart ([3]; 24 h post-injection): 0.28 % ID/g
- Biodistribution Kidney ([3]; 24 h post-injection): 3.11 % ID/g
- Biodistribution Liver ([3]; 24 h post-injection): 0.47 % ID/g
- Biodistribution Lung ([3]; 24 h post-injection): 1.48 % ID/g
- Biodistribution Muscle ([3]; 24 h post-injection): 0.10 % ID/g
- Biodistribution Pancreas ([3]; 24 h post-injection): 0.16 % ID/g
- Biodistribution Small intestine ([3]; 24 h post-injection): 0.96 % ID/g
- Biodistribution Spleen ([3]; 24 h post-injection): 0.20 % ID/g
- Biodistribution Stomach ([3]; 24 h post-injection): 1.02 % ID/g
- Biodistribution Tumor ([3]; 24 h post-injection): 12.51 % ID/g
- Biodistribution Bladder ([3]; 48 h + block (200 nmole of 8)): 0.28 % ID/g
- Biodistribution Blood ([3]; 48 h + block (200 nmole of 8)): 0.04 % ID/g
- Biodistribution Brain ([3]; 48 h + block (200 nmole of 8)): 0.02 % ID/g
- Biodistribution Fat ([3]; 48 h + block (200 nmole of 8)): 0.02 % ID/g
- Biodistribution Heart ([3]; 48 h + block (200 nmole of 8)): 0.04 % ID/g
- Biodistribution Kidney ([3]; 48 h + block (200 nmole of 8)): 0.39 % ID/g
- Biodistribution Liver ([3]; 48 h + block (200 nmole of 8)): 0.23 % ID/g
- Biodistribution Lung ([3]; 48 h + block (200 nmole of 8)): 0.18 % ID/g
- Biodistribution Muscle ([3]; 48 h + block (200 nmole of 8)): 0.01 % ID/g
- Biodistribution Pancreas ([3]; 48 h + block (200 nmole of 8)): 0.02 % ID/g
- Biodistribution Small intestine ([3]; 48 h + block (200 nmole of 8)): 0.05 % ID/g
- Biodistribution Spleen ([3]; 48 h + block (200 nmole of 8)): 0.15 % ID/g
- Biodistribution Stomach ([3]; 48 h + block (200 nmole of 8)): 0.09 % ID/g
- Biodistribution Tumor ([3]; 48 h + block (200 nmole of 8)): 0.65 % ID/g
- Tumor/Blood ratio ([3]; 48 h + block (200 nmole of 8)): 42.7
- Tumor/Kidney ratio ([3]; 48 h + block (200 nmole of 8)): 1.7
- Tumor/Muscle ratio ([3]; 48 h + block (200 nmole of 8)): 62.5
- Biodistribution Bladder ([3]; 48 h post-injection): 0.20 % ID/g
- Biodistribution Blood ([3]; 48 h post-injection): 0.04 % ID/g
- Biodistribution Brain ([3]; 48 h post-injection): 0.17 % ID/g
- Biodistribution Fat ([3]; 48 h post-injection): 0.03 % ID/g
- Biodistribution Heart ([3]; 48 h post-injection): 0.12 % ID/g
- Biodistribution Kidney ([3]; 48 h post-injection): 0.76 % ID/g
- Biodistribution Liver ([3]; 48 h post-injection): 0.19 % ID/g
- Biodistribution Lung ([3]; 48 h post-injection): 0.90 % ID/g
- Biodistribution Muscle ([3]; 48 h post-injection): 0.04 % ID/g
- Biodistribution Pancreas ([3]; 48 h post-injection): 0.06 % ID/g
- Biodistribution Small intestine ([3]; 48 h post-injection): 0.20 % ID/g
- Biodistribution Spleen ([3]; 48 h post-injection): 0.13 % ID/g
- Biodistribution Stomach ([3]; 48 h post-injection): 0.35 % ID/g
- Biodistribution Tumor ([3]; 48 h post-injection): 5.82 % ID/g
- Tumor/Blood ratio ([3]; 48 h post-injection): 200.2
- Tumor/Kidney ratio ([3]; 48 h post-injection): 7.1
- Tumor/Muscle ratio ([3]; 48 h post-injection): 141.5
